Measured values reported in patent publication US20080206215A1, “APPARATUS AND METHOD FOR TREATMENT OF MICROORGANISMS DURING PROPAGATION, CONDITIONING AND FERMENTATION” (priority 2006, published 2008).

How the values were obtained:
fermentation = conditions: background statement; cited from earlier work
Weisella confusa = conditions: background statement; cited from earlier work
yeast [1] = assay: ethanol production in fermentation batches treated with ClO2 during fermentation; type: cell-based; conditions: ClO2 dosages of less than about 15 mg/L applied directly to the fermentation mixture; FIG. 2
Excerpt: FIG. 2 is a graph of time (in hours) versus ethanol produced (in grams) for fermentation batches treated with various concentrations of ClO2 during fermentation.
As mentioned above, ClO2 can be added directly into the fermentation mixture. This can be done by adding the ClO2 in conjunction with the yeast and glucoamylase, for example during the SSF stage. FIG. 2 is a graph of time (in hours) versus ethanol produced (in grams) for fermentation batches treated with various concentrations of ClO2 during fermentation.

yeast [2] = assay: ethanol production from corn mash treated with ClO2 prior to fermentation; type: cell-based; conditions: ClO2 dosages of between about 10 and about 75 mg/L applied to the mash prior to fermentation; FIG. 3
Excerpt: FIG. 3 is a graph of time (in hours) versus ethanol produced (in grams) for mash treated with various concentrations of ClO2 prior to the fermentation process.
The ClO2 can also be added to the mash prior to the fermentation process, for example before the SSF stage. FIG. 3 is a graph of time (in hours) versus ethanol produced (in grams) for mash treated with various concentrations of ClO2 prior to the fermentation process.

yeast [3] = assay: yeast viability in corn mash treated with ClO2 during propagation/conditioning; type: cell-based; conditions: yeast treated with ClO2 during propagation/conditioning phase; FIG. 4
Excerpt: FIG. 4 is a bar graph of viability (% of yeast cells living out of the original number) over time (in hours) in the corn mash treated with 0, 10 and 50 ppm of ClO2.
Chlorine dioxide can also be added during propagation and/or conditioning. For example ClO2 can be added to the yeast slurry before SSF replacing the acid washing step. FIG. 4 is a bar graph of viability (% of yeast cells living out of the original number) over time (in hours) in the corn mash treated with 0, 10 and 500 ppm of ClO2. […] The yeast can tolerate a ClO2 environment and remain viable at high concentrations of ClO2. Competing bacteria, wild yeast, molds, etc. will succumb to the ClO2 leaving only highly viable yeast for fermentation without the additional stress of traditional acid washing. Chlorine dioxide dosages of less than about 50 mg/L may be applied directly to the yeast during propagation.

bacteria = assay: amount of bacteria (CFU/g) in fermenting mash treated with antimicrobial agents; type: cell-based; conditions: FIG. 5
Excerpt: FIG. 5 is a bar graph showing the amount of bacteria present (in CFU/g) in fermenting mash treated with different antimicrobial agents (in ppm) at different times (in hours).
FIG. 5 is a bar graph showing the amount of bacteria present (in CFU/g) in fermenting mash treated with different levels of an antimicrobial agent (in ppm), either ClO2 or antibiotic, at different times (in hours).

## Virginiamycin
fermentation
  concentration that suppresses fermentation: over 2 mg/L
Weisella confusa
  concentration required to inhibit growth: over 25 mg/L

## [O][Cl+][O-] [ClO2, Chlorine dioxide]
Yeast [1]
  ethanol production versus control: greater ethanol production than the control containing no ClO2
Yeast [2]
  ethanol production versus control: greater ethanol production than the control containing no ClO2
Yeast [3]
  greater yeast viability than untreated yeast: up to 80%
bacteria; corn mash treated with ClO2, after 72 hours
  microbial reduction versus untreated mash: greater microbial reduction than untreated mash
bacteria; corn mash treated with greater than 10 ppm of ClO2, after 72 hours
  microbial reduction versus antibiotic-treated mash: greater microbial reduction than the corn mash treated with antibiotic
glucoamylase
  reaction with glucoamylase: does not exhibit a significant reaction with glucoamylase

## [O-][Cl+]O [chlorite ion]
glucoamylase; 5% maltose solution, FIG. 6
  concentration that inhibits the glucoamylase enzyme: ≥ 14 mg/L
